PMC4304211 (Bioorganic & medicinal chemistry, 2013)

Target: STAT3 (Homo sapiens, UniProt P40763)
Experiment: fluorescence polarization competition, single concentration […]
Format: binding
Conditions: read-out: % inhibition at 500 μM

Chain of STAT3 (P40763 2-770): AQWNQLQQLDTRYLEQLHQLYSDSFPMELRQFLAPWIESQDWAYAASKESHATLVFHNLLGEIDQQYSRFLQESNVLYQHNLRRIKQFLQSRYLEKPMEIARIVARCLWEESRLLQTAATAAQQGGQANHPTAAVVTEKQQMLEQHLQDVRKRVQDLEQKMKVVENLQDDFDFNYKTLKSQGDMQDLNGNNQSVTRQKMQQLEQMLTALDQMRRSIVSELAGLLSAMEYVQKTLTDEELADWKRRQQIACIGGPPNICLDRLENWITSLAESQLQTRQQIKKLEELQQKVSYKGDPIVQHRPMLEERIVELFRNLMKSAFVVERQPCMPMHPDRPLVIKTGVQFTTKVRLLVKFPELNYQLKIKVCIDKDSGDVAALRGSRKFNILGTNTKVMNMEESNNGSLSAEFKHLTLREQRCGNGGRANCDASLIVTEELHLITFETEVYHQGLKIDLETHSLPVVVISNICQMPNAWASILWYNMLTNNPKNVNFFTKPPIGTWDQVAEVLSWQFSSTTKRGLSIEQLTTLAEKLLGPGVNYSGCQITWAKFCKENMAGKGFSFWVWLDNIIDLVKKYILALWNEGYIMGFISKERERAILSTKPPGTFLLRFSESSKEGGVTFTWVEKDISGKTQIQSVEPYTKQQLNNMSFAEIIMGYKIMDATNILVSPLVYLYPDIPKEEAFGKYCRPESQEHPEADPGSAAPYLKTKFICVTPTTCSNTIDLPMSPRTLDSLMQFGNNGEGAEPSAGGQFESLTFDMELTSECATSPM

inhibition at 500 µM	SMILES
> 50%	O=C1C=C(SCCO)C(=O)c2c(O)cccc21 [PD10, 8-Hydroxy-2-((2-hydroxyethyl)thio)naphthalene-1,4-dione]
> 50%	NS(=O)(=O)c1cccc2c1C(=O)C=C(SCCO)C2=O [PD11, 6-((2-Hydroxyethyl)thio)-5,8-dioxo-5,8-dihydronaphthalene-1-sulfonamide]
